Assay results reported in US11427615B2, “Peptide compound and application thereof, and composition containing peptide compound” (XDCEXPLORER (SHANGHAI) CO., LTD., priority 2017, dated 2022).
Starred links: 1 amine or outer side, 2 acyl side, 3 side chain; linkers in the order of their positions; H or OH if unused. Non-standard residues stand in square brackets, D forms with d. Residues, ends and D or L forms follow the SMILES beside them. *: point of attachment. X16 = O=C(CCC(=O)[*:2])[C@H](Cc1ccccc1)N[*:1]; dPhe(2,4-Cl2) = N[C@H](Cc1ccc(Cl)cc1Cl)C(=O)O; X12 = O=C([C@@H]1Cc2ccccc2N1[*:1])[*:2]; Phe(4-F) = N[C@@H](Cc1ccc(F)cc1)C(=O)O; Pro(4,4-F2) = O=C(O)[C@@H]1CC(F)(F)CN1; dAla(2-furyl) = N[C@H](Cc1ccco1)C(=O)O; dPhe(4-F) = N[C@H](Cc1ccc(F)cc1)C(=O)O; Arg(Me) = CNC(=N)NCCC[C@H](N)C(=O)O; Hyp = O=C(O)[C@@H]1C[C@@H](O)CN1; NMeL = CN[C@@H](CC(C)C)C(=O)O; αMeL = CC(C)C[C@](C)(N)C(=O)O; Nonanoyl = CCCCCCCCC(=O)*; Pip = O=C(O)[C@@H]1CCCCN1; Ac6c = NC1(C(=O)O)CCCCC1; Aze = O=C(O)[C@@H]1CCN1; Deg = CCC(N)(CC)C(=O)O; AEEA = NCCOCCOCC(=O)O; azaGly = NNC(=O)O; βAla = NCCC(=O)O

Each compound was assayed against T1, human kiss1 receptor (GPR54) (Homo sapiens, UniProt Q969F8) (assay: Kiss1 receptor (GPR54) binding activity of agonists, FRET detection in NFAT-bla CHO-K1 cells). Details: GPR54; measured according to the method of effect Embodiment 1; preliminary data; read-out: Preliminary measurement data (GPR54) EC50.
T1 construct: host or cells: NFAT-bla CHO-K1 cells (Chinese hamster ovary), purchased recombinant cell line
Assay type: cell-based

T1 sequence (Q969F8 whole entry): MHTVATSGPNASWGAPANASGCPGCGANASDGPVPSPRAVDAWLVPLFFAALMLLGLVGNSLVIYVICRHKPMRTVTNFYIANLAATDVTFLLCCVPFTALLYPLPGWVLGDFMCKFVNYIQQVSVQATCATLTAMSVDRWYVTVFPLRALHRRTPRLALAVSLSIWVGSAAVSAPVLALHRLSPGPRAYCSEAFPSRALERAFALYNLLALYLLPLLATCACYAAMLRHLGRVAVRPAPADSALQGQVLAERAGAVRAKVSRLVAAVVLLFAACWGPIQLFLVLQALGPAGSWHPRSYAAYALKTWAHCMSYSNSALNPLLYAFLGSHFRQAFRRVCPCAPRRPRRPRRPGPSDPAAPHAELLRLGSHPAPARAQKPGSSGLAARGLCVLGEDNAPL

SMILES | EC50 [nM]
CCCCCCCCC(=O)NCCOCCOCC(=O)N[C@H](Cc1ccc(O)cc1)C(=O)N1C[C@H](O)C[C@H]1C(=O)N[C@@H](CC(N)=O)C(=O)N[C@H](C(=O)N[C@@H](Cc1ccccc1)C(=O)NNC(=O)N[C@@H](CC(C)C)C(=O)N[C@@H](CCCNC(=N)NC)C(=O)N[C@@H](Cc1c[nH]c2ccccc12)C(N)=O)[C@@H](C)O [YA-295, Nonanoyl-OEG-D-Tyr-Hyp-Asn-Thr-Phe-azaGly-Leu-Arg(Me)-Trp-NH2] ({Nonanoyl-AEEA}-[dY][Hyp]NTF[azaGly]L[Arg(Me)]W-NH2) | 0.02
CNC(=N)NCCC[C@H](NC(=O)[C@H](CC(C)C)NC(=O)CCC(=O)[C@H](Cc1ccccc1)NC(=O)[C@@H](NC(=O)[C@H](CC(N)=O)NC(=O)[C@@H]1C[C@@H](O)CN1C(=O)[C@@H](Cc1ccc(O)cc1)NC(C)=O)[C@@H](C)O)C(=O)N[C@@H](Cc1c[nH]c2ccccc12)C(N)=O [YA-274, M10 [Ac, D-Tyr45, Hyp46, des47, Thr49, (—CH2CH2CO—)51, Arg(Me)53, Trp54]] (Ac-[dY][Hyp]NT[X16]L[Arg(Me)]W-NH2; C-terminus assumed) | 0.048
CNC(=N)NCCC[C@H](NC(=O)[C@H](CC(C)C)NC(=O)NNC(=O)[C@H](Cc1ccccc1)NC(=O)[C@@H](NC(=O)[C@H](CC(N)=O)NC(=O)[C@@H]1C[C@@H](O)CN1C(=O)[C@H](Cc1ccc(F)cc1)NC(C)=O)[C@@H](C)O)C(=O)N[C@@H](Cc1c[nH]c2ccccc12)C(N)=O [YA-71, Ac-Phe(4-F)-Hyp-Asn-Thr-Phe-azaGly-Leu-Arg(Me)-Trp-NH2] (Ac-[Phe(4-F)][Hyp]NTF[azaGly]L[Arg(Me)]W-NH2) | 0.058
CNC(=N)NCCC[C@H](NC(=O)[C@H](CC(C)C)NC(=O)NNC(=O)[C@H](Cc1ccccc1)NC(=O)[C@@H](NC(=O)[C@H](CC(N)=O)NC(=O)C1(NC(C)=O)CCCCC1)[C@@H](C)O)C(=O)N[C@@H](Cc1c[nH]c2ccccc12)C(N)=O [YA-266, Ac-A6c-Asn-Thr-Phe-azaG-Leu-Arg(Me)-Trp-NH2] (Ac-[Ac6c]NTF[azaGly]L[Arg(Me)]W-NH2) | 0.32
CNC(=N)NCCC[C@H](NC(=O)[C@H](CC(C)C)NC(=O)[C@@H]1CCN1C(=O)[C@H](Cc1ccccc1)NC(=O)[C@@H](NC(=O)[C@H](CC(N)=O)NC(=O)[C@@H]1C[C@@H](O)CN1C(=O)[C@H](Cc1ccc(F)cc1)NC(C)=O)[C@@H](C)O)C(=O)N[C@@H](Cc1c[nH]c2ccccc12)C(N)=O [YA-190, Ac-Phe(4-F)-Hyp-Asn-Thr-Phe-Aze-Leu-Arg(Me)-Trp-NH2] (Ac-[Phe(4-F)][Hyp]NTF[Aze]L[Arg(Me)]W-NH2) | 3.89
CNC(=N)NCCC[C@H](NC(=O)[C@H](CC(C)C)NC(=O)C1(NC(=O)[C@H](Cc2ccccc2)NC(=O)[C@@H](NC(=O)[C@H](CC(N)=O)NC(=O)[C@@H]2CC(F)(F)CN2C(=O)[C@@H](Cc2ccc(F)cc2)NC(C)=O)[C@@H](C)O)CCCCC1)C(=O)N[C@@H](Cc1c[nH]c2ccccc12)C(N)=O [YA-212, Ac-[D-Phe(4-F)]-Pro(diF)-Asn-Thr-Phe-A6c-Leu-Arg(Me)-Trp-NH2] (Ac-[dPhe(4-F)][Pro(4,4-F2)]NTF[Ac6c]L[Arg(Me)]W-NH2) | 0.5
CNC(=N)NCCC[C@H](NC(=O)[C@H](CC(C)C)NC(=O)NNC(=O)[C@H](Cc1ccccc1)NC(=O)[C@@H](NC(=O)[C@H](CC(N)=O)NC(=O)[C@@H](Cc1ccco1)NC(=O)[C@@H](Cc1ccc(O)cc1)NC(C)=O)[C@@H](C)O)C(=O)N[C@@H](Cc1c[nH]c2ccccc12)C(N)=O [YA-165, Ac-D-Tyr-(D-2Fua)-Asn-Thr-Phe-azaGly-Leu-Arg(Me)-Trp-NH2] (Ac-[dY][dAla(2-furyl)]NTF[azaGly]L[Arg(Me)]W-NH2) | 0.025
CNC(=N)NCCC[C@H](NC(=O)[C@H](CC(C)C)NC(=O)C1(NC(=O)[C@H](Cc2ccccc2)NC(=O)[C@@H](NC(=O)[C@H](CC(N)=O)NC(=O)[C@@H]2C[C@@H](O)CN2C(=O)[C@@H](Cc2ccc(Cl)cc2Cl)NC(C)=O)[C@@H](C)O)CCCCC1)C(=O)N[C@@H](Cc1c[nH]c2ccccc12)C(N)=O [YA-196, Ac-[D-Phe(2,4-DiCl)]-Hyp-Asn-Thr-Phe-A6c-Leu-Arg (Me)-Trp-NH2] (Ac-[dPhe(2,4-Cl2)][Hyp]NTF[Ac6c]L[Arg(Me)]W-NH2) | 0.48
CNC(=N)NCCC[C@H](NC(=O)[C@H](CC(C)C)NC(=O)C1(NC(=O)[C@H](Cc2ccccc2)NC(=O)[C@@H](NC(=O)[C@H](CC(N)=O)NC(=O)[C@@H]2C[C@@H](O)CN2C(=O)[C@@H](Cc2ccco2)NC(C)=O)[C@@H](C)O)CCCCC1)C(=O)N[C@@H](Cc1c[nH]c2ccccc12)C(N)=O [YA-197, Ac-(D-2Fua)-Hyp-Asn-Thr-Phe-A6c-Leu-Arg(Me)-Trp-NH2] (Ac-[dAla(2-furyl)][Hyp]NTF[Ac6c]L[Arg(Me)]W-NH2) | 0.57
CNC(=N)NCCC[C@H](NC(=O)[C@H](CC(C)C)N(C)C(=O)CCNC(=O)[C@H](Cc1ccccc1)NC(=O)[C@@H](NC(=O)[C@H](CC(N)=O)NC(=O)[C@@H]1C[C@@H](O)CN1C(=O)[C@@H](Cc1ccco1)NC(C)=O)[C@@H](C)O)C(=O)N[C@@H](Cc1c[nH]c2ccccc12)C(N)=O [YA-164, Ac-[3-(2-furyl)-D-Ala]-Hyp-Asn-Thr-Phe-BetaAla-(NMe-Leu)-Arg(Me)-Trp-NH2] (Ac-[dAla(2-furyl)][Hyp]NTF[βAla][NMeL][Arg(Me)]W-NH2) | 1.75
CNC(=N)NCCC[C@H](NC(=O)[C@H](CC(C)C)NC(=O)C1(NC(=O)[C@H](Cc2ccccc2)NC(=O)[C@@H](NC(=O)[C@H](CC(N)=O)NC(=O)[C@@H]2CCCCN2C(=O)[C@@H](Cc2ccc(F)cc2)NC(C)=O)[C@@H](C)O)CCCCC1)C(=O)N[C@@H](Cc1c[nH]c2ccccc12)C(N)=O [YA-210, Ac-[D-Phe(4-F)]-(S-Pip)-Asn-Thr-Phe-A6c-Leu-Arg(Me)-Trp-NH2] (Ac-[dPhe(4-F)][Pip]NTF[Ac6c]L[Arg(Me)]W-NH2) | 1.47
CNC(=N)NCCC[C@H](NC(=O)[C@H](CC(C)C)NC(=O)[C@@H]1CCN1C(=O)[C@H](Cc1ccccc1)NC(=O)[C@@H](NC(=O)[C@H](CC(N)=O)NC(=O)[C@@H]1CC(F)(F)CN1C(=O)[C@@H](Cc1ccc(O)cc1)NC(C)=O)[C@@H](C)O)C(=O)N[C@@H](Cc1c[nH]c2ccccc12)C(N)=O [YA-193, Ac-(D-Tyr)-Pro(diF)-Asn-Thr-Phe-Aze-Leu-Arg(Me)-Trp-NH2] (Ac-[dY][Pro(4,4-F2)]NTF[Aze]L[Arg(Me)]W-NH2) | 1.36
CNC(=N)NCCC[C@H](NC(=O)[C@H](CC(C)C)NC(=O)[C@@H]1Cc2ccccc2N1C(=O)[C@H](Cc1ccccc1)NC(=O)[C@@H](NC(=O)[C@H](CC(N)=O)NC(=O)[C@@H]1CC(F)(F)CN1C(=O)[C@@H](Cc1ccco1)NC(C)=O)[C@@H](C)O)C(=O)N[C@@H](Cc1c[nH]c2ccccc12)C(N)=O [YA-223, Ac-[3-(2-furyl)-D-Ala]-DifluoroPro-Asn-Thr-Phe-Ind-Leu-Arg(Me)-Trp-NH2] (Ac-[dAla(2-furyl)][Pro(4,4-F2)]NTF[X12]L[Arg(Me)]W-NH2) | 4.4
CNC(=N)NCCC[C@H](NC(=O)[C@H](CC(C)C)NC(=O)C1(NC(=O)[C@H](Cc2ccccc2)NC(=O)[C@@H](NC(=O)[C@H](CC(N)=O)NC(=O)[C@@H]2C[C@@H](O)CN2C(=O)[C@@H](Cc2ccc(F)cc2)NC(C)=O)[C@@H](C)O)CCCCC1)C(=O)N[C@@H](Cc1c[nH]c2ccccc12)C(N)=O [YA-195, Ac-[D-Phe(4-F)]-Hyp-Asn-Thr-Phe-A6c-Leu-Arg(Me)-Trp-NH2] (Ac-[dPhe(4-F)][Hyp]NTF[Ac6c]L[Arg(Me)]W-NH2) | 0.68
CNC(=N)NCCC[C@H](NC(=O)[C@H](CC(C)C)N(C)C(=O)CCNC(=O)[C@H](Cc1ccccc1)NC(=O)[C@@H](NC(=O)[C@H](CC(N)=O)NC(=O)[C@@H]1CCCCN1C(=O)[C@@H](Cc1ccc(Cl)cc1Cl)NC(C)=O)[C@@H](C)O)C(=O)N[C@@H](Cc1c[nH]c2ccccc12)C(N)=O [YA-185, Ac-[D-Phe(2,4-DiCl)]-(S-Pip)-Asn-Thr-Phe-BetaAla-NMeLeu-Arg(Me)-Trp-NH2] (Ac-[dPhe(2,4-Cl2)][Pip]NTF[βAla][NMeL][Arg(Me)]W-NH2) | 3.63

Same assay, conditions: NFAT-bla CHO-K1 cells that express human kiss1 receptor (GPR54); FRET; cells cultured with compound for 4 hours; read-out: GPR54 EC50/nM

SMILES | EC50 [nM]
CNC(=N)NCCC[C@H](NC(=O)[C@H](CC(C)C)NC(=O)[C@@H]1CCN1C(=O)[C@H](Cc1ccccc1)NC(=O)[C@@H](NC(=O)[C@H](CC(N)=O)NC(=O)[C@@H]1C[C@@H](O)CN1C(=O)[C@H](Cc1ccc(F)cc1)NC(C)=O)[C@@H](C)O)C(=O)N[C@@H](Cc1c[nH]c2ccccc12)C(N)=O [YA-190, Ac-Phe(4-F)-Hyp-Asn-Thr-Phe-Aze-Leu-Arg(Me)-Trp-NH2] (Ac-[Phe(4-F)][Hyp]NTF[Aze]L[Arg(Me)]W-NH2) | 24.3

Same assay, conditions: human kiss1 receptor (GPR54), NFAT-bla CHO-K1 cells, FRET; preliminary data; method of effect Embodiment 1; read-out: Preliminary measurement data (GPR54) EC50

SMILES | EC50 [nM]
CNC(=N)NCCC[C@H](NC(=O)[C@H](CC(C)C)NC(=O)[C@](C)(CC(C)C)NC(=O)[C@H](Cc1ccccc1)NC(=O)[C@@H](NC(=O)[C@H](CC(N)=O)NC(=O)[C@@H]1C[C@@H](O)CN1C(=O)[C@@H](Cc1ccc(O)cc1)NC(C)=O)[C@@H](C)O)C(=O)N[C@@H](Cc1c[nH]c2ccccc12)C(N)=O [YA-370, Ac-(D-Tyr)-Hyp-Asn-Thr-Phe-(α-Me-Leu)-Leu-Arg(Me)-Trp-NH2] (Ac-[dY][Hyp]NTF[αMeL]L[Arg(Me)]W-NH2) | 1.56
CNC(=N)NCCC[C@H](NC(=O)[C@H](CC(C)C)NC(=O)C1(NC(=O)[C@H](Cc2ccccc2)NC(=O)[C@@H](NC(=O)[C@H](CC(N)=O)NC(=O)C2(NC(=O)[C@@H](Cc3ccco3)NC(C)=O)CCCCC2)[C@@H](C)O)CCCCC1)C(=O)N[C@@H](Cc1c[nH]c2ccccc12)C(N)=O [YA-272, Ac-3-(2-furyl)-D-alanine-A6c-Asn-Thr-Phe-A6c-Leu-Arg(Me)-Trp-NH2] (Ac-[dAla(2-furyl)][Ac6c]NTF[Ac6c]L[Arg(Me)]W-NH2) | 7.95
CNC(=N)NCCC[C@H](NC(=O)[C@H](CC(C)C)NC(=O)NNC(=O)[C@H](Cc1ccccc1)NC(=O)[C@@H](NC(=O)[C@H](CC(N)=O)NC(=O)[C@@H]1C[C@@H](O)CN1C(=O)[C@@H](Cc1ccc(O)cc1)NC(C)=O)[C@@H](C)O)C(=O)N[C@@H](Cc1c[nH]c2ccccc12)C(=O)O [YA-246, Ac-(D-Tyr)-Hyp-Asn-Thr-Phe-azaGly-Leu-Arg(Me)-Trp-OH] (Ac-[dY][Hyp]NTF[azaGly]L[Arg(Me)]W-OH) | 2.86
CCC(CC)(NC(=O)[C@H](Cc1ccccc1)NC(=O)[C@@H](NC(=O)[C@H](CC(N)=O)NC(=O)[C@@H]1C[C@@H](O)CN1C(=O)[C@@H](Cc1ccc(O)cc1)NC(C)=O)[C@@H](C)O)C(=O)N[C@@H](CC(C)C)C(=O)N[C@@H](CCCNC(=N)NC)C(=O)N[C@@H](Cc1c[nH]c2ccccc12)C(N)=O [YA-355, Ac-(D-Tyr)-Hyp-Asn-Thr-Phe-Deg-Leu-Arg(Me)-Trp-NH2] (Ac-[dY][Hyp]NTF[Deg]L[Arg(Me)]W-NH2) | 1.2
